Experimental findings from patent US20260022142A1, “MACROCYCLIC IMMUNOMODULATORS” (Bristol-Myers Squibb Company, priority 2022, published 2026) are described below.

Bridge positions count the residues as written; N and C are the ends. Square brackets hold non-standard residues; d marks the D form. Peptide text beside a SMILES is read from it. * marks the point of attachment. ξ: configuration not given here. Bip = N[C@@H](Cc1ccc(-c2ccccc2)cc1)C(=O)O; NH(CH2)14COOH = O=C(O)CCCCCCCCCCCCCCN*; Phe(3-Me) = Cc1cccc(C[C@H](N)C(=O)O)c1; NH(CH2)12COOH = O=C(O)CCCCCCCCCCCCN*; hArg = N=C(N)NCCCC[C@H](N)C(=O)O; Cha = N[C@@H](CC1CCCCC1)C(=O)O; Cit = NC(=O)NCCC[C@H](N)C(=O)O; Ile(3ξ) = CCC(C)[C@H](N)C(=O)O; Thr(3ξ) = CC(O)[C@H](N)C(=O)O; 12Ado = NCCCCCCCCCCCC(=O)O; Carboxymethyl = O=C(O)C*; Orn = NCCC[C@H](N)C(=O)O; Aun = NCCCCCCCCCCC(=O)O; Dab = NCC[C@H](N)C(=O)O; Dap = NC[C@H](N)C(=O)O; AEEA = NCCOCCOCC(=O)O

T1 sequence (Q15116 25-288): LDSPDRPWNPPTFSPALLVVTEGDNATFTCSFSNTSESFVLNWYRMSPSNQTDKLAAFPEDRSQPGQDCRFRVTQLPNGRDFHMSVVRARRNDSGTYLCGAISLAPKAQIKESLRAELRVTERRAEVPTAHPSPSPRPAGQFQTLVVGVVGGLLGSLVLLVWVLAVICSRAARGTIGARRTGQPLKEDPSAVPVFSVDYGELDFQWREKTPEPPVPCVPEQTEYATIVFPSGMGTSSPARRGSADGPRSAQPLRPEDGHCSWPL

This assay addresses T1, PD-1/PD-L1 interaction (PE-labeled human PD-L1-Ig binding to Jurkat cell line over-expressing human PD-1) (Homo sapiens, UniProt Q15116).
T1 construct: expressed in transfected cells; host or cells: Jurkat
Kind of assay: Jurkat-PD-1 Cell Binding High-Content Screening Assay (CBA). It counts as cell-based. The note with it: Jurkat cell line over-expressing human PD-1; PE-labeled PD-L1-Ig 20 nM final; read-out: Jurkat hPD1-PDL1 IC50. In a few lines: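 Binding of fluorescent PD-L1-Ig (20 nM final) to Jurkat-PD-1 cells was measured by automated imaging after 1 h, following a 2 h compound pre-treatment at 37° C.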
Consider `CCC(C)[C@@H]1NC(=O)[C@H](CC2CCCCC2)NC(=O)[C@H](CCN)NC(=O)[C@@H](CC(C)C)NC(=O)[C@H](CCCN)NC(=O)[C@H](C(C)CC)NC(=O)[C@H](Cc2ccc(-c3ccccc3)cc2)NC(=O)[C@H](C(C)CC)NC(=O)[C@H](Cc2c[nH]c3ccccc23)NC(=O)[C@H](CC(=O)O)NC(=O)[C@H](Cc2ccc(OCC(=O)O)cc2)NC(=O)[C@H](C(C)O)NC(=O)CSC[C@@H](C(=O)N[C@H](CC(N)=O)C(=O)NCCOCCOCC(=O)N2CCC[C@@H]2C(=O)NCCCCCCCCCCC(=O)O)NC(=O)[C@H](CO)NC1=O` (stereo partly drawn) [Compound 3118] ({CH2CO}-[Thr(3ξ)]Y(Carboxymethyl)DW[Ile(3ξ)][Bip][Ile(3ξ)][Orn][dL][Dab][Cha][Ile(3ξ)]SC[dN][AEEA][dP][Aun]-OH; thioether N-14), for which the 50% inhibitory concentration (IC50) (usually the concentration needed to halve the response being measured) amounted to 30.4 nM.

In the case of `CCC(C)[C@@H]1NC(=O)[C@H](CC2CCCCC2)NC(=O)[C@H](CCN)NC(=O)[C@@H](CC(C)C)NC(=O)[C@H](CCCN)NC(=O)[C@H](C(C)CC)NC(=O)[C@H](Cc2ccc(-c3ccccc3)cc2)NC(=O)[C@H](C(C)CC)NC(=O)[C@H](Cc2c[nH]c3ccccc23)NC(=O)[C@H](CC(=O)O)NC(=O)[C@H](Cc2ccc(OCC(=O)O)cc2)NC(=O)[C@H](C(C)O)NC(=O)CSC[C@@H](C(=O)N[C@H](CC(N)=O)C(=O)NCCOCCOCC(=O)N[C@@H](Cc2c[nH]cn2)C(=O)NCCCCCCCCCCC(=O)O)NC(=O)[C@H](CO)NC1=O` (stereo partly drawn) [Compound 3119] ({CH2CO}-[Thr(3ξ)]Y(Carboxymethyl)DW[Ile(3ξ)][Bip][Ile(3ξ)][Orn][dL][Dab][Cha][Ile(3ξ)]SC[dN][AEEA]H[Aun]-OH; thioether N-14), the IC50 amounted to 24.6 nM.

For `CCC(C)[C@@H]1NC(=O)[C@H](CC2CCCCC2)NC(=O)[C@H](CCN)NC(=O)[C@@H](CC(C)C)NC(=O)[C@H](CCCN)NC(=O)[C@H](C(C)CC)NC(=O)[C@H](Cc2ccc(-c3ccccc3)cc2)NC(=O)[C@H](C(C)CC)NC(=O)[C@H](Cc2c[nH]c3ccccc23)NC(=O)[C@H](CC(=O)O)NC(=O)[C@H](Cc2ccc(OCC(=O)O)cc2)NC(=O)[C@H](C(C)O)NC(=O)CSC[C@@H](C(=O)N[C@H](CC(N)=O)C(=O)NCCOCCOCC(=O)N[C@@H](CCCN)C(=O)NCCCCCCCCCCC(=O)O)NC(=O)[C@H](CO)NC1=O` (stereo partly drawn) [Compound 3120] ({CH2CO}-[Thr(3ξ)]Y(Carboxymethyl)DW[Ile(3ξ)][Bip][Ile(3ξ)][Orn][dL][Dab][Cha][Ile(3ξ)]SC[dN][AEEA][Orn][Aun]-OH; thioether N-14), the IC50 amounted to 24.8 nM.

Consider `CCC(C)[C@@H]1NC(=O)[C@H](CC2CCCCC2)NC(=O)[C@H](CCN)NC(=O)[C@@H](CC(C)C)NC(=O)[C@H](CCCN)NC(=O)[C@H](C(C)CC)NC(=O)[C@H](Cc2ccc(-c3ccccc3)cc2)NC(=O)[C@H](C(C)CC)NC(=O)[C@H](Cc2c[nH]c3ccccc23)NC(=O)[C@H](CC(=O)O)NC(=O)[C@H](Cc2ccc(OCC(=O)O)cc2)NC(=O)[C@H](C(C)O)NC(=O)CSC[C@@H](C(=O)N[C@@H](CN)C(=O)NCCOCCOCC(=O)N[C@@H](CCCN)C(=O)NCCCCCCCCCCC(=O)O)NC(=O)[C@H](CO)NC1=O` (stereo partly drawn) [Compound 3121] ({CH2CO}-[Thr(3ξ)]Y(Carboxymethyl)DW[Ile(3ξ)][Bip][Ile(3ξ)][Orn][dL][Dab][Cha][Ile(3ξ)]SC[Dap][AEEA][Orn][Aun]-OH; thioether N-14), for which the IC50 is 10.4 nM.

As for `Cc1cccc(C[C@@H]2NC(=O)[C@H](CC(=O)O)NC(=O)[C@H](Cc3ccc(OCC(=O)O)cc3)NC(=O)[C@H](CN)NC(=O)CSC[C@@H](C(=O)N[C@@H](CCCN)C(=O)NCCCCCCCCCCCC(=O)O)NC(=O)[C@H](C(C)O)NC(=O)[C@H](C(C)C)NC(=O)[C@H](CC3CCCCC3)NC(=O)[C@H](CCN)NC(=O)[C@@H](CC(C)C)NC(=O)[C@H](CCCN)NC(=O)[C@H](CCCNC(N)=O)NC(=O)[C@H](Cc3ccc(-c4ccccc4)cc3)NC(=O)[C@H](C(C)C)NC2=O)c1` (stereo partly drawn) [Compound 3122] ({CH2CO}-[Dap]Y(Carboxymethyl)D[Phe(3-Me)]V[Bip][Cit][Orn][dL][Dab][Cha]V[Thr(3ξ)]C[Orn][12Ado]-OH; thioether N-14), the concentration for half-maximal inhibition (IC50) stood at 19.3 nM.

With `Cc1cccc(C[C@@H]2NC(=O)[C@H](CC(=O)O)NC(=O)[C@H](Cc3ccc(OCC(=O)O)cc3)NC(=O)[C@H](CN)NC(=O)CSC[C@@H](C(=O)N[C@@H](CCCN)C(=O)NCCCCCCCCCCCCC(=O)O)NC(=O)[C@H](C(C)O)NC(=O)[C@H](C(C)C)NC(=O)[C@H](CC3CCCCC3)NC(=O)[C@H](CCN)NC(=O)[C@@H](CC(C)C)NC(=O)[C@H](CCCN)NC(=O)[C@H](CCCNC(N)=O)NC(=O)[C@H](Cc3ccc(-c4ccccc4)cc3)NC(=O)[C@H](C(C)C)NC2=O)c1` (stereo partly drawn) [Compound 3123] ({CH2CO}-[Dap]Y(Carboxymethyl)D[Phe(3-Me)]V[Bip][Cit][Orn][dL][Dab][Cha]V[Thr(3ξ)]C[Orn]-{NH(CH2)12COOH}; thioether N-14), the IC50 worked out at 82.9 nM.

For the compound `Cc1cccc(C[C@@H]2NC(=O)[C@H](CC(=O)O)NC(=O)[C@H](Cc3ccc(OCC(=O)O)cc3)NC(=O)[C@H](CN)NC(=O)CSC[C@@H](C(=O)N[C@@H](CCCN)C(=O)NCCCCCCCCCCCCCCC(=O)O)NC(=O)[C@H](C(C)O)NC(=O)[C@H](C(C)C)NC(=O)[C@H](CC3CCCCC3)NC(=O)[C@H](CCN)NC(=O)[C@@H](CC(C)C)NC(=O)[C@H](CCCN)NC(=O)[C@H](CCCNC(N)=O)NC(=O)[C@H](Cc3ccc(-c4ccccc4)cc3)NC(=O)[C@H](C(C)C)NC2=O)c1` (stereo partly drawn) [Compound 3124] ({CH2CO}-[Dap]Y(Carboxymethyl)D[Phe(3-Me)]V[Bip][Cit][Orn][dL][Dab][Cha]V[Thr(3ξ)]C[Orn]-{NH(CH2)14COOH}; thioether N-14), the IC50 is 281 nM.

On to `Cc1cccc(C[C@@H]2NC(=O)[C@H](CC(=O)O)NC(=O)[C@H](Cc3ccc(OCC(=O)O)cc3)NC(=O)[C@H](CN)NC(=O)CSC[C@@H](C(=O)N[C@@H](CCN)C(=O)NCCCCCCCCCCCC(=O)O)NC(=O)[C@H](C(C)O)NC(=O)[C@H](C(C)C)NC(=O)[C@H](CC3CCCCC3)NC(=O)[C@H](CCN)NC(=O)[C@@H](CC(C)C)NC(=O)[C@H](CCCN)NC(=O)[C@H](CCCNC(N)=O)NC(=O)[C@H](Cc3ccc(-c4ccccc4)cc3)NC(=O)[C@H](C(C)C)NC2=O)c1` (stereo partly drawn) [Compound 3125] ({CH2CO}-[Dap]Y(Carboxymethyl)D[Phe(3-Me)]V[Bip][Cit][Orn][dL][Dab][Cha]V[Thr(3ξ)]C[Dab][12Ado]-OH; thioether N-14), for which the 50% inhibitory concentration (IC50) was found to be 29.1 nM.

Take `Cc1cccc(C[C@@H]2NC(=O)[C@H](CC(=O)O)NC(=O)[C@H](Cc3ccc(OCC(=O)O)cc3)NC(=O)[C@H](CN)NC(=O)CSC[C@@H](C(=O)N[C@@H](CCN)C(=O)NCCCCCCCCCCCCCCC(=O)O)NC(=O)[C@H](C(C)O)NC(=O)[C@H](C(C)C)NC(=O)[C@H](CC3CCCCC3)NC(=O)[C@H](CCN)NC(=O)[C@@H](CC(C)C)NC(=O)[C@H](CCCN)NC(=O)[C@H](CCCNC(N)=O)NC(=O)[C@H](Cc3ccc(-c4ccccc4)cc3)NC(=O)[C@H](C(C)C)NC2=O)c1` (stereo partly drawn) [Compound 3127] ({CH2CO}-[Dap]Y(Carboxymethyl)D[Phe(3-Me)]V[Bip][Cit][Orn][dL][Dab][Cha]V[Thr(3ξ)]C[Dab]-{NH(CH2)14COOH}; thioether N-14): the half-maximal inhibitory concentration (IC50) is 308 nM.

Regarding `CC(C)C[C@H]1NC(=O)[C@H](CCCN)NC(=O)[C@H](C(C)C)NC(=O)[C@H](Cc2ccc(-c3ccccc3)cc2)NC(=O)[C@H](C(C)C)NC(=O)[C@H](Cc2c[nH]c3ccccc23)NC(=O)[C@H](CC(=O)O)NC(=O)[C@H](Cc2ccc(OCC(=O)O)cc2)NC(=O)[C@H](CN)NC(=O)CSC[C@@H](C(=O)NCCOCCOCC(=O)N[C@@H](CCCCN)C(=O)NCCCCCCCCCCC(=O)O)NC(=O)[C@H](C(C)O)NC(=O)[C@H](C(C)C)NC(=O)[C@H](CC2CCCCC2)NC(=O)[C@H](CC(N)=O)NC1=O` (stereo partly drawn) [Compound 3128] ({CH2CO}-[Dap]Y(Carboxymethyl)DWV[Bip]V[Orn][dL]N[Cha]V[Thr(3ξ)]C[AEEA]K[Aun]-OH; thioether N-14), the half-inhibitory concentration (IC50) was determined as 15.5 nM.

As for `CC(C)C[C@H]1NC(=O)[C@H](CCCCN)NC(=O)[C@H](C(C)C)NC(=O)[C@H](Cc2ccc(-c3ccccc3)cc2)NC(=O)[C@H](C(C)C)NC(=O)[C@H](Cc2c[nH]c3ccccc23)NC(=O)[C@H](CC(=O)O)NC(=O)[C@H](Cc2ccc(OCC(=O)O)cc2)NC(=O)[C@H](CCCCNC(=N)N)NC(=O)CSC[C@@H](C(=O)NCCOCCOCC(=O)N[C@@H](CCCCN)C(=O)NCCCCCCCCCCC(=O)O)NC(=O)[C@H](CO)NC(=O)[C@H](C(C)C)NC(=O)[C@H](CC2CCCCC2)NC(=O)[C@H](CC(N)=O)NC1=O` [Compound 3129] ({CH2CO}-[hArg]Y(Carboxymethyl)DWV[Bip]VK[dL]N[Cha]VSC[AEEA]K[Aun]-OH; thioether N-14), the 50% inhibitory concentration (IC50) was 53.4 nM.

On to `CC(C)C[C@H]1NC(=O)[C@H](CCCN)NC(=O)[C@H](C(C)C)NC(=O)[C@H](Cc2ccc(-c3ccccc3)cc2)NC(=O)[C@H](C(C)C)NC(=O)[C@H](Cc2c[nH]c3ccccc23)NC(=O)[C@H](CC(=O)O)NC(=O)[C@H](Cc2ccc(OCC(=O)O)cc2)NC(=O)[C@H](CCCCNC(=N)N)NC(=O)CSC[C@@H](C(=O)NCC(=O)NCCOCCOCC(=O)N[C@@H](CCCN)C(=O)NCCCCCCCCCCC(=O)O)NC(=O)[C@H](C(C)O)NC(=O)[C@H](C(C)C)NC(=O)[C@H](CC2CCCCC2)NC(=O)[C@H](CCN)NC1=O` (stereo partly drawn) [Compound 3130] ({CH2CO}-[hArg]Y(Carboxymethyl)DWV[Bip]V[Orn][dL][Dab][Cha]V[Thr(3ξ)]CG[AEEA][Orn][Aun]-OH; thioether N-14), for which the IC50 was determined as 16.5 nM.
